Results reported in the supplement of paper PMC10307832.

How the values were obtained:
Test in all cases: relative viability (nuclei count vs DMSO), 5 days (fraction); higher = more cells survive
GSK126 + Linsitinib = compound: CC[C@H](C)N1C=C(C2=C(C=C(C=C21)C3=CN=C(C=C3)N4CCNCC4)C(=O)NCC5=C(C=C(NC5=O)C)C)C [GSK126] + C[C@]1(O)C[C@@H](c2nc(-c3ccc4ccc(-c5ccccc5)nc4c3)c3c(N)nccn32)C1 [Linsitinib] (partner 1 µM)
In short: (§1)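 Lung cancer cell lines in 1536-well plates were dosed by pin tool the day after seeding, either with one drug alone or with a fixed anchor-drug dose plus five library-drug doses (not always all listed) in √10 steps. After 5 days, cells were fixed and their nuclei stained in one step (final 0.05% Triton X-100, 1% formaldehyde, 1 ug/ml Hoechst), then counted on 4× images. Relative viability is the nuclei count in treated wells divided by that in vehicle wells. Values are medians of duplicate plates.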

MLN4924 + OSI-027 = compound: NS(=O)(=O)OC[C@@H]1C[C@@H](n2ccc3c(N[C@H]4CCc5ccccc54)ncnc32)C[C@@H]1O [MLN4924] + COc1cccc2cc(-c3nc([C@H]4CC[C@H](C(=O)O)CC4)n4ncnc(N)c34)[nH]c12 [OSI-027] (partner 0.5 µM)
In short: as §1

MLN4924 + Pemetrexed = compound: NS(=O)(=O)OC[C@@H]1C[C@@H](n2ccc3c(N[C@H]4CCc5ccccc54)ncnc32)C[C@@H]1O [MLN4924] + Nc1nc2[nH]cc(CCc3ccc(C(=O)N[C@@H](CCC(=O)O)C(=O)O)cc3)c2c(=O)[nH]1 [Pemetrexed] (partner 0.2 µM)
In short: as §1

MLN4924 + Luminespib = compound: NS(=O)(=O)OC[C@@H]1C[C@@H](n2ccc3c(N[C@H]4CCc5ccccc54)ncnc32)C[C@@H]1O [MLN4924] + CCNC(=O)c1noc(-c2cc(C(C)C)c(O)cc2O)c1-c1ccc(CN2CCOCC2)cc1 [Luminespib] (partner 0.01 µM)
In short: as §1

Row | Cell Line | relative viability (GSK126 + Linsitinib; first compound 0.08 µM) | relative viability (GSK126 + Linsitinib; first compound 0.253 µM) | relative viability (GSK126 + Linsitinib; first compound 0.8 µM) | relative viability (GSK126 + Linsitinib; first compound 2.53 µM) | relative viability (GSK126 + Linsitinib; first compound 8 µM) | relative viability (MLN4924 + OSI-027; first compound 0.04 µM) | relative viability (MLN4924 + OSI-027; first compound 0.1265 µM) | relative viability (MLN4924 + OSI-027; first compound 0.4 µM) | relative viability (MLN4924 + OSI-027; first compound 1.265 µM) | relative viability (MLN4924 + OSI-027; first compound 4 µM) | relative viability (MLN4924 + Pemetrexed; first compound 0.04 µM) | relative viability (MLN4924 + Pemetrexed; first compound 0.1265 µM) | relative viability (MLN4924 + Pemetrexed; first compound 0.4 µM) | relative viability (MLN4924 + Pemetrexed; first compound 1.265 µM) | relative viability (MLN4924 + Pemetrexed; first compound 4 µM) | relative viability (MLN4924 + Luminespib; first compound 0.04 µM) | relative viability (MLN4924 + Luminespib; first compound 0.1265 µM) | relative viability (MLN4924 + Luminespib; first compound 0.4 µM) | relative viability (MLN4924 + Luminespib; first compound 1.265 µM) | relative viability (MLN4924 + Luminespib; first compound 4 µM)
1 | HCC-78 | 0.662 | 0.547 | 0.518 | 0.465 | 0.47 | 0.416 | 0.349 | 0.399 | 0.27 | 0.236 | 0.882 | 0.899 | 0.918 | 0.881 | 0.892 |  |  |  |  | 
2 | HCC-366 | 0.684 | 0.634 | 0.602 | 0.678 | 0.846 | 1.02 | 0.895 | 1.08 | 0.396 | 0.0921 | 0.161 | 0.153 | 0.129 | 0.107 | 0.0292 |  |  |  |  | 
3 | HCC-827 | 1.03 | 0.965 | 0.948 | 0.875 | 0.964 | 0.794 | 0.558 | 0.686 | 0.151 | 0.159 | 0.278 | 0.271 | 0.266 | 0.176 | 0.17 | 0.68 | 0.588 | 0.548 | 0.159 | 0.163
4 | HOP-62 | 1.05 | 0.979 | 0.856 | 0.926 | 0.899 | 0.73 | 0.565 | 0.337 | 0.0849 | 0.132 | 0.235 | 0.175 | 0.0617 | 0.0458 | 0.0811 | 0.811 | 0.579 | 0.264 | 0.126 | 0.12
5 | IA-LM | 0.685 | 0.729 | 0.737 | 0.365 | 0.614 |  |  |  |  |  |  |  |  |  |  |  |  |  |  | 
6 | LC-2-ad | 0.874 | 0.905 | 0.849 | 0.899 | 0.839 | 0.952 | 0.727 | 0.439 | 0.224 | 0.262 | 0.288 | 0.27 | 0.257 | 0.218 | 0.221 | 0.959 | 0.764 | 0.507 | 0.282 | 0.274
7 | LCLC-97TM1 | 0.164 |  | 0.179 | 0.225 | 0.204 | 0.601 | 0.247 | 0.239 | 0.131 | 0.116 | 0.147 | 0.18 | 0.0833 | 0.0476 | 0.0536 | 0.586 | 0.343 | 0.439 | 0.128 | 0.109
8 | LCLC-103H | 1.13 | 1.16 | 1.06 | 1.07 | 1.08 | 0.467 | 0.491 | 0.539 | 0.178 | 0.156 | 0.477 | 0.504 | 0.285 | 0.315 | 0.329 | 0.947 | 0.92 | 0.724 | 0.217 | 0.166
9 | LK-2 | 0.397 | 0.485 | 0.626 | 0.944 | 0.352 | 0.214 | 0.214 | 0.191 | 0.202 | 0.17 | 0.25 | 0.248 | 0.203 | 0.117 | 0.106 | 0.234 | 0.173 | 0.192 | 0.212 | 0.182
